Results on two compounds are retold here after PMC5271370, “A High-Content Assay Enables the Automated Screening and Identification of Small Molecules with Specific ALDH1A1-Inhibitory Activity” (PLoS ONE, 2017).

For one experiment, the system named is LN-229 cells. The experiment is described as follows: 1,536-well high-content imaging ALDEFLUOR assay, LN-229. Format: cell-based, human. Here is the method:
We next sought to test if the fully automated high-content assay could be used to detect ALDH1A1-specific inhibitors.
The ALDEFLUOR kit was purchased from […] Technologies (Vancouver, Canada; #01700). Cells (5 μL) were dispensed into black, optical quality (cyclic olefin copolymer) clear bottom, medium binding TC treated 1,536-well plates (Aurora Microplates, Whitefish MT) using a Multidrop Combi dispenser (ThermoFisher) and incubated overnight (37°C, 5% CO2, 85% RH). Media was subsequently removed by centrifuging plates upside down using a plate adaptor to collect media. A solution of BAAA substrate ([…] Technologies) and Hoechst 33342 (ThermoFisher, final concentrations of 500 nM and 0.5 nM, respectively) in ALDEFLUOR buffer ([…] Technologies #01700) was dispensed onto cells using a Multidrop Combi followed by immediate transfer (23 nL) of compound or control solutions using a Wako Pin-tool (final percentage of DMSO in the cell plates was 0.5%). Unless otherwise noted, all compounds were assayed as 16-point dilutions spanning a final concentration range of 1.4 nM to […]. […] Cells were incubated for 30 minutes or the indicated amount of time at 37°C, 5% CO2, 85% RH to allow the conversion of BAAA into BAA. Supernatant was subsequently removed by centrifugation as described above, then ALDEFLUOR buffer (3 μl) was dispensed by Multidrop Combi before imaging on an IN Cell 2200 (GE Healthcare).
The above assay was modified for an online robotic screening system. After cell plating and overnight incubation, 4 μL of media were removed using a 64-tip metal aspirator head on a Wako aspirator station, leaving 1 μL remaining in the well, followed by a 4 μL dispense of BAAA and Hoechst 33342 in ALDEFLUOR buffer, for a final concentration of 500 nM and 0.5 nM, respectively. Immediately following the dispense, 23 nL of compound or control solutions were transferred using a Wako Pin-tool. […] Plates were then immediately read on the IN Cell 2200 as described below.
For images captured on the IN Cell 2200 widefield automated microscope, a 10x 0.45 NA Plan Apo objective lens was used to capture the entire well of the 1,536-well plate using standard DAPI (390/18x, 432/48m) and FITC (475/28x, 525/48m) filter sets at 50 msec and 100 msec exposures, respectively. Images were subsequently analyzed using IN Cell Investigator v1.6.2 analysis software’s canned Multi-Target Analysis algorithm (GE Healthcare). […]
The same controls were also used for the calculation of the Z’ factor for each assay. The Z’ factor, a measure of assay quality control, was determined as previously described. […] All concentration–response curves were fitted as before and IC50 were calculated with the GraphPad Prism software.

Another experiment relates to ALDH1A2. The settings on record: reported ALDH target 1A2; read-out: Reported Biochemical IC50, ALDH1A2; cited from earlier work.
A further experiment relates to ALDH1A3. To be noted: reported ALDH target 1A3; read-out: Reported Biochemical IC50, ALDH1A3; cited from earlier work.

Like-named read-outs stand apart in the source and are kept apart here.

The IC50 is the midpoint of a concentration-inhibition curve. In the case of `CCN(CC)c1ccc(C=O)cc1` [DEAB, 4-N,N-diethylaminobenzaldehyde], the IC50 is around 3.48 µM with LN-229 cells (1,000 cells/well, 500 nM substrate, 30 minutes, read-out: ALDEFLUOR IC50 LN-229); 1.2 µM in the experiment with ALDH1A2; 3 µM in the experiment on ALDH1A3.

Take `CC(C)N(C(=O)CCl)c1ccccc1` [Propachlor]: the IC50 in the experiment with LN-229 cells (Homo sapiens, LN-229, read-out: ALDEFLUOR IC50 LN229, retest of screen hits, 11-point dose response 0.77 nM to 45.8 μM) was 16 µM; with LN-229 cells (read-out: ALDEFLUOR IC50 LN229, retest of screen hits, 11-point dose response 0.77 nM to 45.8 μM) it was 16.1 µM.
